How the values were obtained:
NCI-H292 cells [1] = test: Northern analysis for MUC5 gene expression in NCI-H292 cells; format: cell-based, human; conditions: EGF or TGFα 25 ng/ml, TNFα 20 ng/ml; 12 h, 24 h
Description: (§1) Cell culture. A human pulmonary mucoepidermoid carcinoma cell line, NCI-H292 cells, were grown in RPMI11640 medium containing 10% fetal bovine serum, penicillin (100 U/ml), streptomycin (100 μg/ml) at 37° C. in a humidified 5% CO2 water-jacketed incubator. […] In inhibition studies with an EGF-R tyrosine kinase inhibitor, BIBX1522 (10 μg/ml, generously provided by Boehringer Ingelheim Inc., Ingelheim, Germany), cells were pretreated with BIBX1522 30 min before adding growth factors. After incubation, cells grown in a T-75 flask were used for total RNA extraction or protein extraction, and 8-chamber slides were used for Alcian blue/PAS-staining to visualize mucins.

NCI-H292 cells [2] = test: Alcian blue/PAS staining of NCI-H292 cells for mucin glycoproteins; format: cell-based, human; conditions: TNFα 20 ng/ml; EGF, TGFα each 25 ng/ml
Description: as §1

pathogen-free rats = test: Goblet cell production in pathogen-free rats after tracheal instillation of TNFα and EGF-R ligands; format: in vivo, rat; conditions: intratracheal 600 ng, alone
Description: Healthy rats. Rats were anesthetized with methohexital sodium (Brevital sodium, 50 mg/kg, i.p.; Eli Lilly & Co., Indianapolis, Ind.) and allowed to breathe spontaneously. […] In each study, sterile PBS (100 μl) was instilled into the trachea as control. […] Rats were pretreated with BIBX1522 (3, 10 or 30 mg/kg, i.p.), 1 h before and 24 h after instillation of TGFα. The trachea and lungs were removed for examination 48 h after the instillation of TGFα.
Tissue preparation. At preselected times during anesthesia, the systemic circulation was perfused with 1% paraformaldehyde in DEPC-treated PBS at a pressure of 120 mmHg. The trachea was then removed and placed in 4% paraformaldehyde for 24 h. After fixation, trachea and lungs were embedded in either JB-4 plus monomer solution A for cell analysis or O.C.T. compound (Sakura Finetek U.S.A., Inc., Torrance, Calif.) for immunohistochemistry and in situ hybridization. The embedded tissues were cut as cross sections ([…] thick) and placed on slides.
Cell analysis. We counted the total number of epithelial cells by counting epithelial cell nuclei over 2 mm of the basal lamina with an oil immersion objective lens (×1000 magnification). The linear length of the basal lamina under each analyzed region of epithelium was determined by tracing the contour of the digitized image of the basal lamina. After instillation of stimuli, “developing” goblet cells form. These cells have Alcian blue/PAS-positive granules, but the size of granules is small, and the number of cytoplasmic granules is few. We call these “developing” goblet cells “pre-goblet cells”, a stage before cells become mature goblet cells. Goblet cells are tall, cuboidal, goblet to low columnar in shape, with abundant Alcian blue/PAS-stained granules filling most of the cytoplasm between the nucleus and the luminal surface. Pre-goblet cells are defined as cells with smaller mucus-stained areas (<1/3 height in epithelium from basement membrane to luminal surface) or with sparsely and lightly Alcian blue/PAS-stained, small granules. Ciliated cells are recognized by their ciliated borders, lightly stained cytoplasm, and large round nuclei. Non-granulated secretory cells are columnar in shape and extend from the lumen to the basal lamina. The cytoplasm stains light pink color, and a few tiny PAS-positive and Alcian blue-negative granules are observed in the cytoplasm. Basal cells are small flattened cells with a large nucleus, located just above the basal lamina but not reaching the airway lumen.
Quantification of goblet cell production. Goblet cell production, was determined by the volume density of Alcian blue/PAS-stained mucosubstances on the mucosal surface epithelium using a semi-automatic imaging system described elsewhere (Weber et al. (1984) Science 224:294-297). We measured the Alcian blue/PAS-positive stained area and the total epithelial area and expressed the data as the percentage of the total area stained by Alcian blue-PAS. The analysis was performed with the public domain NIH Image program (developed at the U.S. National Institute of Health and available from the Internet by anonymous FTP from zippy.nimh.gov or on floppy disk from the National Technical Information Service, Springfield, Va., part number PB95-500195GEI).
Immunohistochemical localization of EGF-R in rat epithelium. The localization of EGF-R was examined using immunchistochemical staining with an antibody to EGF-R (Calbiochem, San Diego, Calif.) in frozen sections of rat trachea. After perfusion with 1% paraformaldehyde in PBS, tissues were placed in 4% paraformaldehyde in PBS for 1 h and then removed in 30% sucrose for cryoprotection overnight. Tracheas were embedded in O.C.T. compound (Sakura Finetek U.S.A., Inc., Torrance, Calif.) and frozen. Frozen sections (5 μm) were cut and placed on glass slides (Superfrost Plus, Fisher Scientific, Pittsburgh, Pa.). Immunostaining was performed similarly to the in vitro studies.

NCI-H292 cells [3] = test: In situ hybridization for MUC5AC gene in NCI-H292 cells (Example 2); format: cell-based, human; conditions: within 12 h
Description: Cell Culture. NCI-H292 cells, a human pulmonary mucoepidermoid carcinoma cell line, were grown in RPMI 1640 medium containing 10% fetal bovine serum, penicillin (100 U/ml), streptomycin (100 μg/ml) and Hepes (25 mM) at 37° C. in a humidified 5% CO2, water-jacketed incubator. Either 6-well culture plates or 8-chamber slides were used to culture the cells. When confluent, cells were incubated for 1 h with neutrophils (10^6 cells/ml) alone, TNFα alone (recombinant human TNFα, 20 ng/ml, Genzyme, Cambridge, Mass.), IL-8 (recombinant human IL-8, 10^−8 M, Genzyme) alone, fMLP (10^−8 M, Sigma, St. Louis, Mo.) alone, TNFα plus neutrophils, IL-8 plus neutrophils, fMLP plus neutrophils, hydrogen peroxide (H2O2, 200 μM), cigarette smoke solution or TGFα (recombinant human TGFα, 0.1-25 ng/ml, Calbiochem, San Diego, Calif.). The cells were then washed and incubated with fresh medium alone. Experiments were terminated at preselected times (for mRNA, 6 h and 12 h; for protein, 24 h). As controls, cells were incubated with medium alone for same time periods. […] NCI-H292 cells were incubated for 1 h with either neutrophils that had been incubated with TNFα (20 ng/ml) for 1 h and then washed with sterile PBS to avoid contamination with the supernatant (e.g., molecules released from neutrophils), or the NCI-H292 cells were incubated with supernatant only. […]

NCI-H292 cells [4] = test: Immunoassay of MUC5AC protein in NCI-H292 cells (Example 2); format: cell-based, human
Description: Cell Culture. NCI-H292 cells, a human pulmonary mucoepidermoid carcinoma cell line, were grown in RPMI 1640 medium containing 10% fetal bovine serum, penicillin (100 U/ml), streptomycin (100 μg/ml) and Hepes (25 mM) at 37° C. in a humidified 5% CO2, water-jacketed incubator. Either 6-well culture plates or 8-chamber slides were used to culture the cells. […] The cells were then washed and incubated with fresh medium alone. Experiments were terminated at preselected times (for mRNA, 6 h and 12 h; for protein, 24 h). As controls, cells were incubated with medium alone for same time periods. […] In inhibition studies with blocking antibodies to EGF-R ligands, the supernatants were pretreated with anti-TGFα antibody (Calbiochem) or anti-EGF antibody for 30 min and then added to NCI-H292 cells. The role of oxygen free radicals was examined using scavengers of oxygen free radical DMSO (1%, Sigma), 1,3-dimethyl-2-thiourea (DMTU, 50 mM, Sigma), or superoxide dismutase (SOD, 300 U/ml, Sigma).
Preparation of Cigarette Smoke Solution. Research cigarettes (code2R1, produced for the University of Kentucky Tobacco and Health Research Foundation) were used in the study. Cigarette smoke solution was prepared as previously described (Dusser et al. (1989) J. Clin. Invest. 84:900-906). In brief, cigarette smoke was withdrawn into a polypropylene syringe (35 ml) at a rate of one puff/min (10 times) and bubbled slowly into 20 ml of RPM11640 containing 50 mM Hepes buffer. The smoke solution was then titrated to pH 7,4 and used immediately after preparation.
Immunoassay of MUC5AC Protein. MUC5AC protein was measured as described above. In brief, cell lysates were prepared with PBS at multiple dilutions, and 50 μl of each sample was incubated with bicarbonate-carbonate buffer (50 μl) at 40° C. in a 96-well plate (Maxisorp Nunc, Fisher Scientific, Santa Clara, Calif.), until dry. Plates were washed three times with PBS and blocked with 2% BSA (fraction V, Sigma) for 1 h at room temperature. Plates were again washed three times with PBS and then incubated with 50 μl of mouse monoclonal MUC5AC antibody (1:100) that was diluted with PBS containing 0.05% Tween 20. After 1 h, the wells were washed three times with PBS, and 100 μl horseradish peroxidase-goat anti-mouse IgG conjugate (1:10,000, Sigma) was dispensed into each well. After 1 h, plates were washed three times with PBS. Color reaction was developed with TMB peroxidase solution (Kirkegaard & Perry Laboratories, Gaithersburg, Md.) and stopped with 2N H2SO4. Absorbance was read at 450 nm.

EGFR = EGFR (Homo sapiens, UniProt P00533); test: Immunoprecipitation of EGF-R and immunoblotting for tyrosine phosphorylation in NCI-H292 cells; format: cell-based; design: These cells express EGF-R constitutively; endogenous in cells; host or cells: NCI-H292 (human pulmonary mucoepidermoid carcinoma); conditions: within 15 min of stimulus
Sequence of EGFR (P00533 25-1210): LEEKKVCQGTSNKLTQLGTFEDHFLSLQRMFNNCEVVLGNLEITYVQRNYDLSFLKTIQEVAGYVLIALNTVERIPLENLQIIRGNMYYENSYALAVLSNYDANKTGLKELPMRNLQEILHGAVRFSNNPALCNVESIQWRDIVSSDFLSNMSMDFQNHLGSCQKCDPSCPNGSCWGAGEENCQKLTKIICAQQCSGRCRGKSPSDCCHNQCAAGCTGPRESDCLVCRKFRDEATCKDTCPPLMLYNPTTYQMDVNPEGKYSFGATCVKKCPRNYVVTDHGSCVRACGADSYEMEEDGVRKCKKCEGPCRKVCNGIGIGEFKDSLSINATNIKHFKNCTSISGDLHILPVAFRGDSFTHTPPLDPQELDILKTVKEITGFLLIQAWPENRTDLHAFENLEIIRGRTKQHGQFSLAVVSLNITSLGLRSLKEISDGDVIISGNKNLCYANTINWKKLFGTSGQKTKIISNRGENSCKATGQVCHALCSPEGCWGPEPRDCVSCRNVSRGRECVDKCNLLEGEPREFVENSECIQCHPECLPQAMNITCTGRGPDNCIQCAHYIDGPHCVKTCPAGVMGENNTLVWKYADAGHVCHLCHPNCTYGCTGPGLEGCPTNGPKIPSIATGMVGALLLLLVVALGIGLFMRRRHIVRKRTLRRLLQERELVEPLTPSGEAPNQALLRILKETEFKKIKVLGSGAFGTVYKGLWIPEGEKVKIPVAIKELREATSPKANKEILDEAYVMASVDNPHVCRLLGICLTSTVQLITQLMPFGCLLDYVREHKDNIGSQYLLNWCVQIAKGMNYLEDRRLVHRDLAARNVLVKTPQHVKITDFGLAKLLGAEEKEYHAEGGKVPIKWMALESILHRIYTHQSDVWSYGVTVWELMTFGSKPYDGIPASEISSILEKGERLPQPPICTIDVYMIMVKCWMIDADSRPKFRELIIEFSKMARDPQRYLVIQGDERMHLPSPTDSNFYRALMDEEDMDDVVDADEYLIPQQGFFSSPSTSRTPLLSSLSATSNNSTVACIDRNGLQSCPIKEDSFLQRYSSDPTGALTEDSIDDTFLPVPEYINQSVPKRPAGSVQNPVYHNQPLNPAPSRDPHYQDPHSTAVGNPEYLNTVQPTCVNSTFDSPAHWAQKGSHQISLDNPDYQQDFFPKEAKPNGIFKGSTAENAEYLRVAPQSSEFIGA
Description: Immunoprecipitation for EGF-R Protein and Immunoblotting for Tyrosine Phosphorylation. Cells were serum-starved for 24 h and then stimulated with TGFα, H2O2, or the supernatant of activated neutrophils for 15 min. After stimulation, cells were lysed and incubated for 30 min in an orbital shaker at 4° C. To remove insoluble material, cell lysates were centrifuged at 14,000 rpm for 5 min at 4° C. Aliquots of supernatants containing equal amounts of protein were immunoprecipitated with anti-EGF receptor antibody (polyclonal, Ab4, Calbiochem) and 20 μl of protein A-agarose (Santa Cruz) for 2 h at 4° C. Precipitates were washed three times with 0.5 ml of lysis buffer, suspended in SDS sample buffer, and boiled for 5 min. Proteins were separated by SDS-PAGE in 8.0% acrylamide gel. The resulting gel was equilibrated in the transfer buffer: 25 mM Tris-HCl, 192 mM glycine, 20% (vol/vol) methanol, pH 8.3. The proteins were then transferred electrophoretically to nitrocellulose membranes (0.22 μm), blocked with 5% fat-free skimmed milk in PBS containing 0.05% Tween 20 overnight and then incubated with monoclonal anti-phosphotyrosine antibody (1:100,Santa Cruz) for 1 h. Bound antibody was visualized according to a standard protocol for the avidin-biotin-alkaline phosphatase complex method (ABC kit, Vector Laboratories).

Compound: EGF: recombinant human epidermal growth factor (Genzyme)
- MUC5 gene expression on incubation with mediator (NCI-H292 cells [1]): clearly expressed at 24 h
- PAS-positive staining on incubation with mediator (NCI-H292 cells [2]): increased PAS-positive staining
- epithelial production of mucous glycoconjugates (pathogen-free rats): had no effect

Compound: OO [H2O2, hydrogen peroxide]
- MUC5AC gene expression (NCI-H292 cells [3]): up-regulated
- maximum response in MUC5AC synthesis relative to the response to TGFα (NCI-H292 cells [4]): half
- MUC5AC synthesis in NCI-H292 cells, stimulus alone (NCI-H292 cells [4]; H2O2 200 μM, cigarette smoke solution): caused MUC5AC synthesis
- EGF-R-specific tyrosine phosphorylation (EGFR): induced EGF-R-specific tyrosine phosphorylation

Reference: patent US7531500B2, “Preventing airway mucus production by administration of EGF-R antagonists” (The Regents of the University of California, priority 1998, dated 2009)
